Results: patent US12378224B2 (Dong-A Socio Holdings Co., Ltd., priority 2016, dated 2025)

Assays:
human MER (528-end) = human MER (528-end) (Homo sapiens (Human), UniProt Q12866); experiment: HTRF Kinase Activity Biochemical Assay (KinEASE-TK); settings: 10 uM ATP
Method in brief: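 Recombinant human MER (528-end) phosphorylated biotin-TK peptide substrate, 1 h at room temperature. Reaction stopped with detection buffer containing 0.375 nM Eu3+-cryptate anti-TK antibody and 0.062 uM streptavidin-XL665, 1 h further. Activity taken as HTRF ratio 665/620 nm ×10,000, 340 nm excitation.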

[1] = biological target: BCR fusion to kinase domain of MerTK (Ba/F3-MerTK) (Homo sapiens, UniProt Q12866); experiment: In Cell TAM Kinase Assay Using BaF3 Cellular System; assay type: cell-based, murine; settings: Ba/F3 BCR-kinase fusion proliferation, 72 hours, Cell Titer Glo; kinase not given; read-out: IC50
BCR fusion to kinase domain of MerTK (Ba/F3-MerTK), sequence (Q12866 21-999 limits assumed, stated change not applied): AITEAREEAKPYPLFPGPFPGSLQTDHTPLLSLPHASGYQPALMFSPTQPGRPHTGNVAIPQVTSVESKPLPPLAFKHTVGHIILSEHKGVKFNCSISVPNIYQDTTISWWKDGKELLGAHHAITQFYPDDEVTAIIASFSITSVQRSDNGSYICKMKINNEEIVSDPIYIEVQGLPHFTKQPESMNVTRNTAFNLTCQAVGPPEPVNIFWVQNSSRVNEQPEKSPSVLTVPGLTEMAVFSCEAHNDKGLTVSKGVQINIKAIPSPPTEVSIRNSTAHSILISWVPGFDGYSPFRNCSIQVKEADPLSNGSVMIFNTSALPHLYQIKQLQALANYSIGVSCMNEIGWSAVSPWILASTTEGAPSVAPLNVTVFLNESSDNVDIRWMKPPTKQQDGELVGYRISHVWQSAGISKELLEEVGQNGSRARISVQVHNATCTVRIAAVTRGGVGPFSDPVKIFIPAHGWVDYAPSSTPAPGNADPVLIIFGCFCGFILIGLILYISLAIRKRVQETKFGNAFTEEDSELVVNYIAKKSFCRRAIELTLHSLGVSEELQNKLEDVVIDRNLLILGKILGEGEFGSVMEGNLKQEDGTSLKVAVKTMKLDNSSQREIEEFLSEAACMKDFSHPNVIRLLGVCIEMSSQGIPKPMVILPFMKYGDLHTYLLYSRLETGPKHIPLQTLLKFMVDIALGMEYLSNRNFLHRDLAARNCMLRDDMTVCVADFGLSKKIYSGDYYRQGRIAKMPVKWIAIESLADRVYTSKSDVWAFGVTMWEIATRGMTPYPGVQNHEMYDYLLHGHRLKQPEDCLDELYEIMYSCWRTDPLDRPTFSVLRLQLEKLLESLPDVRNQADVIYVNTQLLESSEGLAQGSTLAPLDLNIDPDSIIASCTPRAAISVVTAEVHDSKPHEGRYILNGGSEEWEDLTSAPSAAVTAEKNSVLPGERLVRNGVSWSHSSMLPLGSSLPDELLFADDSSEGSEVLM
From the text: Three Ba/F3 cell lines (a murine IL-3 dependent pro-B cell line) expressing BCR fusions to the kinase domains of either MerTK (Ba/F3-MerTK), Axl (Ba/F3-Axl), or Tyro3 (Ba/F3-Tyro3) were purchased from Advanced Cellular Dynamics. The IL-3 independence of all 3 cell lines was confirmed. After thawing, the 3 Ba/F3 cell lines were split and maintained in cell culture media, which consisted of RPMI-1640-HEPES (Thermo-Cat #22400-089) with 1× Glutamax (Thermo-Cat #35050-061) and 10% FBS (Sigma-Cat #F4135 (500 ml), at a cell density range of 0.05×10^6−1×10^6 cells/mL 4 days before used in the routine screen. Compound plates were prepared using Nunc™ white 384-well optical bottom plates (ThermoFisher, USA) with compound in 25 nL dimethyl sulfoxide in each well. For routine assays, each of the 3 Ba/F3 cell lines was seeded at 1,000 cells per well with 25 µL of cell culture media directly into 384-well compound plates and incubated for 72 hours. Cell proliferation was then measured by adding 25 μL of Cell Titer Glo 2.0 (Promega, USA). After incubating with Cell Titer Glo at room temperature for 30 mins, the luminescence intensity, which quantifies the cell viability, was measured using an Envision™ plate reader (PerkinElmer, USA). […] In the presence of IL-3, the proliferation of the Ba/F3-Tyro3 cells is no longer dependent on the Tyro3 kinase activity.

[2] = biological target: human c-MER catalytic domain (Homo sapiens (Human), UniProt Q12866); experiment: TR-FRET Kinase Activity Biochemical Assay (LanthaScreen); settings: 10 uM ATP, 1 hour, kinase not given
human c-MER catalytic domain, sequence (Q12866 587-858): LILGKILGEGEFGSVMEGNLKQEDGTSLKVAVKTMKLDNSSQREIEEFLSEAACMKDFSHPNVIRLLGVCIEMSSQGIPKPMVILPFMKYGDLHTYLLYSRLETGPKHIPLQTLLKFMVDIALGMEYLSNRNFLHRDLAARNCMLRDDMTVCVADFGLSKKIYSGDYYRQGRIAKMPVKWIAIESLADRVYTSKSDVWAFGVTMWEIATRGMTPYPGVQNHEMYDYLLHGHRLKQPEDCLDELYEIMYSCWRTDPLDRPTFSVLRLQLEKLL
Method in brief: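 Recombinant human c-MER catalytic domain phosphorylated fluorescein-labeled poly-GT substrate. The reaction was stopped with 10 mM EDTA, then 2 nM Tb-labeled anti-phosphotyrosine antibody was added for 30 min. Kinase activity was taken from the 495/520 nm TR-FRET emission ratio after 340 nm excitation.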

human MER (528-end), sequence (Q12866 528-999 limits assumed): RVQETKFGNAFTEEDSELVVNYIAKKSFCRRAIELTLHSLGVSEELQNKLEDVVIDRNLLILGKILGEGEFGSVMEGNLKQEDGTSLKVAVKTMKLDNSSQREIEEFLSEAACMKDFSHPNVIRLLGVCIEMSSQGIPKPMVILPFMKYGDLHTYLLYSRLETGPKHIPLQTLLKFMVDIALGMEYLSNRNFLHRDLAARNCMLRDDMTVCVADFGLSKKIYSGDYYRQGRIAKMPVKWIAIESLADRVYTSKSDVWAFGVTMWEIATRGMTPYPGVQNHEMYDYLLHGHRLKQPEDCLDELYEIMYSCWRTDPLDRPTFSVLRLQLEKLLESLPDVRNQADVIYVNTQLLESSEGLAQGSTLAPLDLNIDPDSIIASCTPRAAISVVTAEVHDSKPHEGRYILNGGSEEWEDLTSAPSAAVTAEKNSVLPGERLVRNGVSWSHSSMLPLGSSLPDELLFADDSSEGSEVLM

| IC50 (human MER (528-end)) | IC50 [1] | SMILES | IC50 [2] |
| --- | --- | --- | --- |
| 100 to 1000 nM | > 1000 nM | Cn1cc(-c2cnc(N)c(C(=O)N[C@@H]3CCN(C(=O)c4ccc(OCc5ccc([N+](=O)[O-])cc5)cc4)C3)c2)cn1 [Example 769, (R)-2-amino-5-(1-methyl-1H-pyrazol-4-yl)-N-(1-(4-((4-nitrobenzyl)oxy)benzoyl)pyrrolidin-3-yl)nicotinamide] | – |
| 10 to 100 nM | < 100 nM | Cc1cccc(-c2ccc(C(=O)N3CC[C@@H](NC(=O)c4cc(-c5cnn(C)c5)cnc4N)C3)cc2)c1 [Example 656, (R)-2-amino-5-(1-methyl-1H-pyrazol-4-yl)-N-(1-(3′-methyl-[1,1′-biphenyl]-4-carbonyl)pyrrolidin-3-yl)nicotinamide] | – |
| 100 to 1000 nM | > 1000 nM | Cn1cc(-c2cnc(N)c(C(=O)N[C@@H]3CCN(C(=O)c4ccc(-c5ccc(CO)cc5)cc4)C3)c2)cn1 [Example 747, (R)-2-amino-N-(1-(4′-(hydroxymethyl)-[1,1′-biphenyl]-4-carbonyl)pyrrolidin-3-yl)-5-(1-methyl-1H-pyrazol-4-yl)nicotinamide] | – |
| 100 to 1000 nM | > 1000 nM | COc1ccc(-c2ccc(C(=O)N3CC[C@@H](NC(=O)c4cc(-c5cnn(C)c5)cnc4N)C3)cc2)cc1OC [Example 659, (R)-2-amino-N-(1-(3′,4′-dimethoxy-[1,1′-biphenyl]-4-carbonyl)pyrrolidin-3-yl)-5-(1-methyl-1H-pyrazol-4-yl)nicotinamide] | – |
| 100 to 1000 nM | > 1000 nM | Cn1cc(-c2cnc(N)c(C(=O)N[C@@H]3CCN(C(=O)c4ccc5cc(O)ccc5c4)C3)c2)cn1 [Example 706, (R)-2-amino-N-(1-(6-hydroxy-2-naphthoyl)pyrrolidin-3-yl)-5-(1-methyl-1H-pyrazol-4-yl)nicotinamide] | – |
| 10 to 100 nM | 100 to 500 nM | Cn1cc(-c2cnc(N)c(C(=O)N[C@@H]3CCN(C(=O)c4ccc(-c5cccc(CO)c5)cc4)C3)c2)cn1 [Example 748, (R)-2-amino-N-(1-(3′-(hydroxymethyl)-[1,1′-biphenyl]-4-carbonyl)pyrrolidin-3-yl)-5-(1-methyl-1H-pyrazol-4-yl)nicotinamide] | – |
| > 1000 nM | > 1000 nM | CN(c1ccc(-c2ccc(C(=O)N3CC[C@@H](NC(=O)c4cc(-c5cnn(C)c5)cnc4N)C3)cc2)cc1)c1ccc([N+](=O)[O-])cc1Cl [Example 806, (R)-2-amino-N-(1-(4′-((2-chloro-4-nitrophenyl)(methyl)amino)-[1,1′-biphenyl]-4-carbonyl)pyrrolidin-3-yl)-5-(1-methyl-1H-pyrazol-4-yl)nicotinamide] | – |

Further lines, the compound ahead of its results:

| SMILES | IC50 (human MER (528-end)) | IC50 [1] | IC50 [2] |
| --- | --- | --- | --- |
| Cn1cc(-c2cnc(N)c(C(=O)N[C@@H]3CCN(C(=O)c4ccc(-c5ccc(C6=CCNCC6)cc5)cc4)C3)c2)cn1 [Example 755, (R)-2-amino-5-(1-methyl-1H-pyrazol-4-yl)-N-(1-(4′-(1,2,3,6-tetrahydropyridin-4-yl)-[1,1′-biphenyl]-4-carbonyl)pyrrolidin-3-yl)nicotinamide] | > 1000 nM | > 1000 nM | – |
| CN1CCC(COc2ccc3cc(C(=O)N4CC[C@@H](NC(=O)c5cc(-c6cnn(C)c6)cnc5N)C4)ccc3c2)CC1 [Example 767, (R)-2-amino-5-(1-methyl-1H-pyrazol-4-yl)-N-(1-(6-((1-methylpiperidin-4-yl)methoxy)-2-naphthoyl)pyrrolidin-3-yl)nicotinamide] | 100 to 1000 nM | > 1000 nM | – |
| Cn1cc(-c2cnc(N)c(C(=O)N[C@@H]3CCN(C(=O)c4ccc(-c5ccc(Oc6ccc(N)cc6)cc5)cc4)C3)c2)cn1 [Example 505, (R)-2-amino-N-(1-(4′-(4-aminophenoxy)-[1,1′-biphenyl]-4-carbonyl)pyrrolidin-3-yl)-5-(1-methyl-1H-pyrazol-4-yl)nicotinamide] | 100 to 1000 nM | > 1000 nM | – |
| Cn1cc(-c2cnc(N)c(C(=O)N[C@@H]3CCN(C(=O)c4cc5cc(Br)ccc5s4)C3)c2)cn1 [Example 708, (R)-2-amino-N-(1-(5-bromobenzo[b]thiophene-2-carbonyl)pyrrolidin-3-yl)-5-(1-methyl-1H-pyrazol-4-yl)nicotinamide] | 100 to 1000 nM | 500 to 1000 nM | – |
| Cn1cc(-c2cnc(N)c(C(=O)N[C@@H]3CCN(C(=O)c4ccc5cc(NC6CCNCC6)ccc5c4)C3)c2)cn1 [Example 816, (R)-2-amino-5-(1-methyl-1H-pyrazol-4-yl)-N-(1-(6-(piperidin-4-ylamino)-2-naphthoyl)pyrrolidin-3-yl)nicotinamide] | 100 to 1000 nM | > 1000 nM | – |
| CN(c1ccc(-c2ccc(C(=O)N3CC[C@@H](NC(=O)c4cc(-c5cnn(C)c5)cnc4N)C3)cc2)cc1)c1ccc(N)cc1F [Example 835, (R)-2-amino-N-(1-(4′-((4-amino-2-fluorophenyl)(methyl)amino)-[1,1′-biphenyl]-4-carbonyl)pyrrolidin-3-yl)-5-(1-methyl-1H-pyrazol-4-yl)nicotinamide] | 100 to 1000 nM | > 1000 nM | – |
| Cn1cc(-c2cnc(N)c(C(=O)NC[C@H]3CCCN3C(=O)c3cccc(-c4ccccc4)c3)c2)cn1 [Example 737, (R)—N-((1-([1,1′-biphenyl]-3-carbonyl)pyrrolidin-2-yl)methyl)-2-amino-5-(1-methyl-1H-pyrazol-4-yl)nicotinamide] | > 1000 nM | > 1000 nM | – |
| CN1CCN(C(=O)c2ccc(-c3cnc(N)c(C(=O)N[C@@H]4CCN(C(=O)c5ccc(-c6ccccc6Cl)cc5)C4)c3)cc2)CC1 [Example 588, (R)-2-amino-N-(1-(2′-chloro-[1,1′-biphenyl]-4-carbonyl)pyrrolidin-3-yl)-5-(4-(4-methylpiperazine-1-carbonyl)phenyl)nicotinamide] | 10 to 100 nM | > 1000 nM | – |
| Cn1cc(-c2cnc(N)c(C(=O)N[C@@H]3CCN(C(=O)c4cc5cc(F)ccc5[nH]4)C3)c2)cn1 [Example 696, (R)-2-amino-N-(1-(5-fluoro-1H-indole-2-carbonyl)pyrrolidin-3-yl)-5-(1-methyl-1H-pyrazol-4-yl)nicotinamide] | > 1000 nM | > 1000 nM | – |
| Cn1cc(-c2cnc(N)c(C(=O)N[C@@H]3CCN(C(=O)c4ccc(-c5ccc6c(cnn6C)c5)cc4)C3)c2)cn1 [Example 757, (R)-2-amino-N-(1-(4-(1-methyl-1H-indazol-5-yl)benzoyl)pyrrolidin-3-yl)-5-(1-methyl-1H-pyrazol-4-yl)nicotinamide] | 100 to 1000 nM | > 1000 nM | – |
| Cn1cc(-c2cnc(N)c(C(=O)N[C@@H]3CCN(C(=O)c4ccc5cc(OCC6CCNCC6)ccc5c4)C3)c2)cn1 [Example 761] | – | > 1000 nM | – |
| CN1CCN(Cc2ccc(-c3ccc(NC(=O)N4CC[C@@H](NC(=O)c5cc(-c6cnn(C)c6)cnc5N)C4)cc3)cc2)CC1 [Example 273, (R)-2-amino-5-(1-methyl-1H-pyrazol-4-yl)-N-(1-((4′-((4-methylpiperazin-1-yl)methyl)-[1,1′-biphenyl]-4-yl)carbamoyl)pyrrolidin-3-yl)nicotinamide] | – | – | > 1000 nM |
| Cn1cc(-c2cnc(N)c(C(=O)N[C@@H]3CCN(C(=O)c4ccc(-c5ccc(OC6CCNCC6)cc5)cc4)C3)c2)cn1 [Example 531, (R)-2-amino-5-(1-methyl-1H-pyrazol-4-yl)-N-(1-(4′-(piperidin-4-yloxy)-[1,1′-biphenyl]-4-carbonyl)pyrrolidin-3-yl)nicotinamide] | – | – | 10 to 100 nM |
